Source: PubChem BioAssay (NCI)
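Interpolation was linear, between the two tested concentrations surrounding the appropriate level; five concentrations were tested over 48 hours in 96-well plates. GI50 is the concentration that inhibits growth by half. Definition used: TGI = concentration required for complete inhibition of growth.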

Columns and labels:
Test in all cases: inhibition of tumour cell growth, NCI panel, 48 h
TK-10 renal = tested on: TK-10 renal
OVCAR-5 ovarian = tested on: OVCAR-5 ovarian
HCC-2998 colon = tested on: HCC-2998 colon
KM12 colon = tested on: KM12 colon
SF-539 CNS = tested on: SF-539 CNS
SW-620 colon = tested on: SW-620 colon
HOP-92 NSCLC = tested on: HOP-92 NSCLC
MCF7 breast = tested on: MCF7 breast
HL-60(TB) leukemia = tested on: HL-60(TB) leukemia
UACC-257 melanoma = tested on: UACC-257 melanoma
M14 melanoma = tested on: M14 melanoma
OVCAR-8 ovarian = tested on: OVCAR-8 ovarian
UO-31 renal = tested on: UO-31 renal
CCRF-CEM leukemia = tested on: CCRF-CEM leukemia
UACC-62 melanoma = tested on: UACC-62 melanoma
RPMI-8226 leukemia = tested on: RPMI-8226 leukemia
HT29 colon = tested on: HT29 colon
HCT-116 colon = tested on: HCT-116 colon
OVCAR-4 ovarian = tested on: OVCAR-4 ovarian
SK-MEL-2 melanoma = tested on: SK-MEL-2 melanoma
MDA-MB-231 breast = tested on: MDA-MB-231 breast
786-0 renal = tested on: 786-0 renal
BT-549 breast = tested on: BT-549 breast
MALME-3M melanoma = tested on: MALME-3M melanoma
MOLT-4 leukemia = tested on: MOLT-4 leukemia
T-47D breast = tested on: T-47D breast
OVCAR-3 ovarian = tested on: OVCAR-3 ovarian
SK-MEL-28 melanoma = tested on: SK-MEL-28 melanoma
NCI-H23 lung = tested on: NCI-H23 lung

O=C(CCCCCCSc1nc(-c2ccccc2)cc(-c2ccc(Cl)cc2)n1)NO
GI50 (TK-10 renal): 2.78 µM
TGI (TK-10 renal): 13.5 µM
GI50 (OVCAR-5 ovarian): 1.56 µM
TGI (OVCAR-5 ovarian): 5.42 µM
GI50 (HCC-2998 colon): 2.44 µM
TGI (HCC-2998 colon): 7.19 µM
GI50 (KM12 colon): 2.97 µM
TGI (KM12 colon): 13.5 µM
GI50 (SF-539 CNS): 1.84 µM
TGI (SF-539 CNS): 5.31 µM
GI50 (SW-620 colon): 1.48 µM
TGI (SW-620 colon): 10.4 µM
GI50 (HOP-92 NSCLC): 1.75 µM
TGI (HOP-92 NSCLC): 5.44 µM
GI50 (MCF7 breast): 1.95 µM
TGI (MCF7 breast): 13.3 µM
GI50 (HL-60(TB) leukemia): 2.16 µM
TGI (HL-60(TB) leukemia): 4.84 µM
GI50 (UACC-257 melanoma): 2.67 µM
TGI (UACC-257 melanoma): 11.4 µM
GI50 (M14 melanoma): 1.95 µM
TGI (M14 melanoma): 6.53 µM
GI50 (OVCAR-8 ovarian): 1.93 µM
TGI (OVCAR-8 ovarian): 10.2 µM
GI50 (UO-31 renal): 0.905 µM
TGI (UO-31 renal): 2.65 µM
GI50 (CCRF-CEM leukemia): 0.629 µM
TGI (CCRF-CEM leukemia): 6.49 µM
GI50 (UACC-62 melanoma): 1.37 µM
TGI (UACC-62 melanoma): 3.5 µM
GI50 (RPMI-8226 leukemia): 0.64 µM
TGI (RPMI-8226 leukemia): 6.19 µM
GI50 (HT29 colon): 2.05 µM
TGI (HT29 colon): 11.4 µM
GI50 (HCT-116 colon): 1.14 µM
TGI (HCT-116 colon): 12.4 µM
GI50 (OVCAR-4 ovarian): 2.52 µM
TGI (OVCAR-4 ovarian): 13.5 µM
GI50 (SK-MEL-2 melanoma): 3.65 µM
TGI (SK-MEL-2 melanoma): 16.2 µM
GI50 (MDA-MB-231 breast): 2.65 µM
TGI (MDA-MB-231 breast): 8.96 µM
GI50 (786-0 renal): 2.22 µM
TGI (786-0 renal): 6.92 µM
GI50 (BT-549 breast): 3.67 µM
TGI (BT-549 breast): 17.5 µM
GI50 (MALME-3M melanoma): 1.25 µM
TGI (MALME-3M melanoma): 9.05 µM
GI50 (MOLT-4 leukemia): 0.557 µM
TGI (MOLT-4 leukemia): 4.26 µM
GI50 (T-47D breast): 1.62 µM
TGI (T-47D breast): 4.98 µM
GI50 (OVCAR-3 ovarian): 1.96 µM
TGI (OVCAR-3 ovarian): 6.86 µM
GI50 (SK-MEL-28 melanoma): 2.94 µM
TGI (SK-MEL-28 melanoma): 12.1 µM
GI50 (NCI-H23 lung): 1.88 µM
TGI (NCI-H23 lung): 5.13 µM
